Experimental data taken from PubChem BioAssay AID2060889 (Molecular Pharmacology Branch, DTP, NCI, 2025).
pIC50: −log10 of the molar value.

System: LG0567-F671-PDC complex spheroids viability
Test: Anticancer human tumor LG0567-F671-PDC patient-derived lung adenocarcinoma cell line growth inhibition [RAS]
Settings: for pIC50: curve of first compound; for viability, T/C: stronger effect = lower value
Summary of the method: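 Multi-cell-type spheroids: tumor cells plus HUVEC endothelial cells and mesenchymal stem cells. RAS-pathway inhibitors were combined with targeted agents, each dosed in half-log steps down from clinical Cmax, or from 10 microM when Cmax was unknown.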

[1] = second compound 0.000949 µM, first compound 0.0316 µM
[2] = second compound 0.000949 µM, first compound 0.1 µM
[3] = second compound 0.000949 µM, first compound 0.316 µM
[4] = second compound 0.000949 µM, first compound 1 µM
[5] = second compound 0.000949 µM, first compound 3.16 µM
[6] = second compound 0.000949 µM, first compound 10 µM
[7] = second compound 0.003 µM, first compound 0.0316 µM
[8] = second compound 0.003 µM, first compound 0.1 µM
[9] = second compound 0.003 µM, first compound 0.316 µM
[10] = second compound 0.003 µM, first compound 1 µM
[11] = second compound 0.003 µM, first compound 3.16 µM
[12] = second compound 0.003 µM, first compound 10 µM
[13] = second compound 0.00949 µM, first compound 0.0316 µM
[14] = second compound 0.00949 µM, first compound 0.1 µM
[15] = second compound 0.00949 µM, first compound 0.316 µM
[16] = second compound 0.00949 µM, first compound 1 µM
[17] = second compound 0.00949 µM, first compound 3.16 µM
[18] = second compound 0.00949 µM, first compound 10 µM
[19] = second compound 0.03 µM, first compound 0.0316 µM
[20] = second compound 0.03 µM, first compound 0.1 µM
[21] = second compound 0.03 µM, first compound 0.316 µM
[22] = second compound 0.03 µM, first compound 1 µM
[23] = second compound 0.03 µM, first compound 3.16 µM
[24] = second compound 0.03 µM, first compound 10 µM
[25] = second compound 0.0949 µM, first compound 0.0316 µM
[26] = second compound 0.0949 µM, first compound 0.1 µM
[27] = second compound 0.0949 µM, first compound 0.316 µM
[28] = second compound 0.0949 µM, first compound 1 µM
[29] = second compound 0.0949 µM, first compound 3.16 µM
[30] = second compound 0.0949 µM, first compound 10 µM
[31] = second compound 0.3 µM, first compound 0.0316 µM
[32] = second compound 0.3 µM, first compound 0.1 µM
[33] = second compound 0.3 µM, first compound 0.316 µM
[34] = second compound 0.3 µM, first compound 1 µM
[35] = second compound 0.3 µM, first compound 3.16 µM
[36] = second compound 0.3 µM, first compound 10 µM
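Note: spheroids exposed to compound for seven days before readout.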
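Throughout, for pIC50: luminescence signal used as a proxy for viable cells.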

SMILES: CC(C)NCC(C(=O)N1CCN(c2ncnc3c2C(C)CC3O)CC1)c1ccc(Cl)cc1 (stereo unspecified) + CCn1c(-c2cc(N3CCN(C)CC3)cnc2C(C)OC)c2c3cc(ccc31)-c1csc(n1)CC(NC(=O)C1CC1C)C(=O)N1CCCC(N1)C(=O)OCC(C)(C)C2
- pIC50 (second compound 0.000949 µM): > 7.50
- pIC50 (second compound 0.003 µM): > 7.50
- pIC50 (second compound 0.00949 µM): > 7.50
- pIC50 (second compound 0.03 µM): > 7.50
- pIC50 (second compound 0.0949 µM): > 7.50
- pIC50 (second compound 0.3 µM): > 7.50
- viability, T/C [1]: 25.2%
- viability, T/C [2]: 23.8%
- viability, T/C [3]: 19.2%
- viability, T/C [4]: 14.8%
- viability, T/C [5]: 12.1%
- viability, T/C [6]: 15.1%
- viability, T/C [7]: 12.2%
- viability, T/C [8]: 10.1%
- viability, T/C [9]: 9.03%
- viability, T/C [10]: 7.01%
- viability, T/C [11]: 6.61%
- viability, T/C [12]: 6.58%
- viability, T/C [13]: 6.47%
- viability, T/C [14]: 6.39%
- viability, T/C [15]: 5.04%
- viability, T/C [16]: 4.97%
- viability, T/C [17]: 3.86%
- viability, T/C [18]: 3.52%
- viability, T/C [19]: 4.03%
- viability, T/C [20]: 3.99%
- viability, T/C [21]: 3.4%
- viability, T/C [22]: 2.83%
- viability, T/C [23]: 2.4%
- viability, T/C [24]: 2.51%
- viability, T/C [25]: 3.05%
- viability, T/C [26]: 2.86%
- viability, T/C [27]: 2.34%
- viability, T/C [28]: 1.84%
- viability, T/C [29]: 1.68%
- viability, T/C [30]: 1.73%
- viability, T/C [31]: 2.97%
- viability, T/C [32]: 2.51%
- viability, T/C [33]: 2.28%
- viability, T/C [34]: 1.91%
- viability, T/C [35]: 1.51%
- viability, T/C [36]: 1.41%

SMILES: CC(C)n1nc(-c2ccc3oc(N)nc3c2)c2c(N)ncnc21 + CCn1c(-c2cc(N3CCN(C)CC3)cnc2C(C)OC)c2c3cc(ccc31)-c1csc(n1)CC(NC(=O)C1CC1C)C(=O)N1CCCC(N1)C(=O)OCC(C)(C)C2
- pIC50 (second compound 0.000949 µM): > 9.50
- pIC50 (second compound 0.003 µM): > 9.50
- pIC50 (second compound 0.00949 µM): > 9.50
- pIC50 (second compound 0.03 µM): > 9.50
- pIC50 (second compound 0.0949 µM): > 9.50
- pIC50 (second compound 0.3 µM): > 9.50
- viability, T/C (second compound 0.000949 µM, first compound 0.000316 µM): 24.8%
- viability, T/C (second compound 0.000949 µM, first compound 0.001 µM): 23.1%
- viability, T/C (second compound 0.000949 µM, first compound 0.00316 µM): 18.8%
- viability, T/C (second compound 0.000949 µM, first compound 0.01 µM): 15.1%
- viability, T/C [1]: 11.8%
- viability, T/C [2]: 7.87%
- viability, T/C (second compound 0.003 µM, first compound 0.000316 µM): 12.8%
- viability, T/C (second compound 0.003 µM, first compound 0.001 µM): 11.2%
- viability, T/C (second compound 0.003 µM, first compound 0.00316 µM): 8.44%
- viability, T/C (second compound 0.003 µM, first compound 0.01 µM): 6.54%
- viability, T/C [7]: 4.49%
- viability, T/C [8]: 3.31%
- viability, T/C (second compound 0.00949 µM, first compound 0.000316 µM): 5.79%
- viability, T/C (second compound 0.00949 µM, first compound 0.001 µM): 5.54%
- viability, T/C (second compound 0.00949 µM, first compound 0.00316 µM): 4.34%
- viability, T/C (second compound 0.00949 µM, first compound 0.01 µM): 5.27%
- viability, T/C [13]: 2.11%
- viability, T/C [14]: 1.59%
- viability, T/C (second compound 0.03 µM, first compound 0.000316 µM): 3.45%
- viability, T/C (second compound 0.03 µM, first compound 0.001 µM): 3.53%
- viability, T/C (second compound 0.03 µM, first compound 0.00316 µM): 2.88%
- viability, T/C (second compound 0.03 µM, first compound 0.01 µM): 2%
- viability, T/C [19]: 1.3%
- viability, T/C [20]: 1.03%
- viability, T/C (second compound 0.0949 µM, first compound 0.000316 µM): 3.67%
- viability, T/C (second compound 0.0949 µM, first compound 0.001 µM): 2.67%
- viability, T/C (second compound 0.0949 µM, first compound 0.00316 µM): 2.18%
- viability, T/C (second compound 0.0949 µM, first compound 0.01 µM): 1.68%
- viability, T/C [25]: 1.09%
- viability, T/C [26]: 0.8%
- viability, T/C (second compound 0.3 µM, first compound 0.000316 µM): 2.77%
- viability, T/C (second compound 0.3 µM, first compound 0.001 µM): 2.43%
- viability, T/C (second compound 0.3 µM, first compound 0.00316 µM): 1.81%
- viability, T/C (second compound 0.3 µM, first compound 0.01 µM): 1.5%
- viability, T/C [31]: 1.12%
- viability, T/C [32]: 0.62%

SMILES: C[C@@H](NC(=O)c1ncnc(N)c1Cl)c1ncc(C(=O)Nc2cc(C(F)(F)F)c(Cl)cn2)s1 + CCn1c(-c2cc(N3CCN(C)CC3)cnc2C(C)OC)c2c3cc(ccc31)-c1csc(n1)CC(NC(=O)C1CC1C)C(=O)N1CCCC(N1)C(=O)OCC(C)(C)C2
- pIC50 (second compound 0.000949 µM): > 7.50
- pIC50 (second compound 0.003 µM): > 7.50
- pIC50 (second compound 0.00949 µM): > 7.50
- pIC50 (second compound 0.03 µM): > 7.50
- pIC50 (second compound 0.0949 µM): > 7.50
- pIC50 (second compound 0.3 µM): > 7.50
- viability, T/C [1]: 30.9%
- viability, T/C [2]: 37.5%
- viability, T/C [3]: 43.4%
- viability, T/C [4]: 39.1%
- viability, T/C [5]: 40.3%
- viability, T/C [6]: 35.3%
- viability, T/C [7]: 19.7%
- viability, T/C [8]: 18.3%
- viability, T/C [9]: 19.9%
- viability, T/C [10]: 22.7%
- viability, T/C [11]: 24.5%
- viability, T/C [12]: 26.4%
- viability, T/C [13]: 7.34%
- viability, T/C [14]: 8.73%
- viability, T/C [15]: 10.4%
- viability, T/C [16]: 11.1%
- viability, T/C [17]: 13.5%
- viability, T/C [18]: 12.6%
- viability, T/C [19]: 5.32%
- viability, T/C [20]: 5.26%
- viability, T/C [21]: 5.82%
- viability, T/C [22]: 8.15%
- viability, T/C [23]: 8.79%
- viability, T/C [24]: 9.05%
- viability, T/C [25]: 4.43%
- viability, T/C [26]: 3.63%
- viability, T/C [27]: 3.94%
- viability, T/C [28]: 5.56%
- viability, T/C [29]: 5.9%
- viability, T/C [30]: 7.14%
- viability, T/C [31]: 3.16%
- viability, T/C [32]: 4.04%
- viability, T/C [33]: 3.86%
- viability, T/C [34]: 4.35%
- viability, T/C [35]: 5.96%
- viability, T/C [36]: 5.33%
